Experimental data as given in ChEMBL document CHEMBL4251748, “Discovery of Cytochrome P450 4F11 Activated Inhibitors of Stearoyl Coenzyme A Desaturase” (J Med Chem, 2018).

Legend:
NCI-H1155 [1] = assay: Cytotoxicity against human NCI-H1155 cells incubated for 4 days in presence of sodium oleate; format: functional, cell-based; conditions: NCI-H1155, 96 h
NCI-H1155 [2] = assay: Cytotoxicity against human NCI-H1155 cells expressing pLVX empty vector incubated for 4 days; format: functional, cell-based; conditions: NCI-H1155, 96 h
[3] = molecular target: T1, Acyl-CoA desaturase 1 (Mus musculus) (UniProt P13516); assay: Inhibition of SCD1 in CD1 mouse liver at 3 uM using stearoyl [9,10-3H] CoA as substrate and NADPH incubated for 2 hrs by scintillation counting method
T1 sequence (whole entry): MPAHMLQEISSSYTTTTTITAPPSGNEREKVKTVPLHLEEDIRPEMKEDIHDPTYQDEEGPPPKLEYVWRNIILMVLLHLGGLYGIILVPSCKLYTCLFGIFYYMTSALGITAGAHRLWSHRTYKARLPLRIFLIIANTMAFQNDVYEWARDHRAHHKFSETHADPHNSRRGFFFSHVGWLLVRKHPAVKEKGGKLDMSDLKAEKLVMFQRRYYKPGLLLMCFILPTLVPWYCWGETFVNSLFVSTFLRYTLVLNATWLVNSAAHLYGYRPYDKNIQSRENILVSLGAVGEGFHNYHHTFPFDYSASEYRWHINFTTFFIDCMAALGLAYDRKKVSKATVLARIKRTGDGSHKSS

NCI-H1155 [4] = assay: Cytotoxicity against human NCI-H1155 cells expressing CYP4F11 incubated for 4 days in presence of sodium oleate; format: functional, cell-based; conditions: NCI-H1155, 96 h
NCI-H2122 [5] = assay: Cytotoxicity against human NCI-H2122 cells incubated for 4 days; format: functional, cell-based; conditions: NCI-H2122, 96 h
[6] = Half life in mouse liver S9 fraction by LC-MS/MS analysis; format: ADME, subcellular
NCI-H1155 [7] = assay: Cytotoxicity against human NCI-H1155 cells expressing CYP4F11 incubated for 4 days; format: functional, cell-based; conditions: NCI-H1155, 96 h
[8] = molecular target: T1, Acyl-CoA desaturase 1 (Mus musculus); assay: Inhibition of SCD1 in CD1 mouse liver at 100 nM using stearoyl [9,10-3H] CoA as substrate and NADPH incubated for 2 hrs by scintillation counting method
CYP4F11 = molecular target: T2, CYP4F11 (Homo sapiens, UniProt Q9HBI6); assay: Drug metabolism in human NCI-H1155 cells assessed as CYP4F11-meidated O-demethylation by measuring half life at 500 nM by LC-MS/MS analysis; format: ADME, cell-based
T2 sequence (Q9HBI6 whole entry): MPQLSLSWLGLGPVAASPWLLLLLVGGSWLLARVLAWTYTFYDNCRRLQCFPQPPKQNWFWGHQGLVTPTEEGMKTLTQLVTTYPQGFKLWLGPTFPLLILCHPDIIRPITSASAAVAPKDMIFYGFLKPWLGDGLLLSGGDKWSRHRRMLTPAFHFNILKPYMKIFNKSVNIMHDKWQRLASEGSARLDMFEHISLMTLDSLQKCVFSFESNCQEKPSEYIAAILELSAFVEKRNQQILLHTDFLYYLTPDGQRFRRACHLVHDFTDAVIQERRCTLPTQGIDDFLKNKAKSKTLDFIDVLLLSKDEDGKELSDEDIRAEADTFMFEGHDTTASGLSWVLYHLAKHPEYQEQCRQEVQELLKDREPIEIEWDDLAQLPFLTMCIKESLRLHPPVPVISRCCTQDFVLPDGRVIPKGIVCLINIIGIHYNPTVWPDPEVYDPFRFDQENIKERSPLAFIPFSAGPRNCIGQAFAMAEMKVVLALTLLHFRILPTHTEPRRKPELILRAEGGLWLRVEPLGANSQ

[9] = Drug level in human NCI-H1155 cells after 4 hrs by LC-MS/MS analysis; format: ADME, cell-based; conditions: nci-h1155, 4 h
[10] = Half life in human NCI-H1155 cells at 500 nM by LC-MS/MS analysis; format: ADME, cell-based
HCC95 [11] = assay: Cytotoxicity against human HCC95 cells; format: functional, cell-based
HCC44 [12] = assay: Cytotoxicity against human HCC44 cells; format: functional, cell-based
NCI-H2009 = assay: Cytotoxicity against human NCI-H2009 cells; format: functional, cell-based
NCI-H2122 [13] = assay: Cytotoxicity against human NCI-H2122 cells; format: functional, cell-based
HCC44 [14] = assay: Cytotoxicity against human HCC44 cells at > 50 uM relative to control; format: functional
NCI-H1395 = assay: Cytotoxicity against human NCI-H1395 cells; format: functional, cell-based
NCI-H2122 [15] = assay: Cytotoxicity against human NCI-H2122 cells at > 50 uM relative to control; format: functional
NCI-H1155 [16] = assay: Cytotoxicity against human NCI-H1155 cells; format: functional, cell-based
[17] = Cytotoxicity against human HCC366 cells; format: functional, cell-based
NCI-H1993 = assay: Cytotoxicity against human NCI-H1993 cells; format: functional, cell-based
HCC4017 = assay: Cytotoxicity against human HCC4017 cells; format: functional, cell-based
NCI-H460 [18] = assay: Cytotoxicity against human NCI-H460 cells at > 50 uM relative to control; format: functional
[19] = Cytotoxicity against human NCI-H1819 cells; format: functional, cell-based
NCI-H460 [20] = assay: Cytotoxicity against human NCI-H460 cells; format: functional, cell-based
[21] = Cytotoxicity against human NCI-H2073 cells; format: functional, cell-based
HCC95 [22] = assay: Cytotoxicity against human HCC95 cells at > 50 uM relative to control; format: functional

SMILES | EC50 (NCI-H1155 [1]) [µM] | EC50 (NCI-H1155 [2]) [µM] | EC50 (NCI-H1155 [4]) [µM] | EC50 (NCI-H2122 [5]) [µM] | EC50 (NCI-H1155 [7]) [µM] | further results
C#CCOc1ccc(C(=O)c2ccc(NC(=O)C(=O)NCCc3ccc(O)cc3)cc2)cc1 | > 50 | 0.008 | > 50 | 0.058 | 0.21 | inhibition [3]: > 98%; half-life [6]: 0.217 h
O=C(NCCc1ccc(O)cc1)c1ccc2ccccc2n1 | 46 | 18 | 35 | > 50 | 17 | inhibition [8]: 31%
COc1ccc(CCNC(=O)C(=O)NC2CC2)cc1 | > 50 | > 50 | > 50 | > 50 | > 50 | half-life at 0.5 µM (CYP4F11): 4.7 h; Drug uptake [9]: 80 nM; half-life at 0.5 µM [10]: > 48 h
O=C(NCCc1ccc(O)cc1)NC(=O)c1ccc(COc2ccccc2)cc1 | 12 | 0.007 | 6.4 | 0.011 | 0.051 | inhibition [8]: 96%; half-life [6]: > 4 h
COc1ccc(CCNC(=O)C(=O)Nc2ccc(Cl)cc2)cc1 | > 50 | 36 | > 50 | 0.22 | 0.67 | EC50 (HCC95 [11]): < 1 µM; EC50 (HCC44 [12]): < 1 µM; EC50 (NCI-H2009): > 10 µM; EC50 (NCI-H2122 [13]): < 1 µM; Activity (HCC44 [14]): >95%; EC50 (NCI-H1395): > 10 µM; Activity (NCI-H2122 [15]): >95%; EC50 (NCI-H1155 [16]): > 10 µM; EC50 [17]: > 10 µM; EC50 (NCI-H1993): > 10 µM; EC50 (HCC4017): > 10 µM; Activity (NCI-H460 [18]): >95%; half-life [6]: 0.117 h; EC50 [19]: > 10 µM; EC50 (NCI-H460 [20]): < 1 µM; EC50 [21]: > 10 µM; Activity (HCC95 [22]): >95%
COc1ccc(C(C)CNC(=O)C(=O)Nc2ccc(Cl)cc2)cc1 (configuration not stated) | > 50 | > 50 | > 50 | 3.66 | > 50 | 
COc1ccc(CNC(=O)C(=O)Nc2ccc(Cl)cc2)cc1 |  |  |  |  |  | Drug uptake [9]: 340 nM; half-life at 0.5 µM [10]: > 48 h
COc1ccc(CCNC(=O)c2ccc3ccccc3n2)cc1 | > 50 | > 50 | > 50 | > 50 | > 50 | 
COc1ccc(CCNC(=O)C(=O)Nc2ccccc2Br)cc1 |  |  |  | > 50 |  | 
COc1ccc(CCNC(=O)NC(=O)c2ccc(Oc3ccccc3)cc2)cc1 |  |  |  | 0.031 |  | 
COc1ccc(CCNC(=O)NC(=O)c2ccc(C(O)c3ccccc3)cc2)cc1 (configuration not stated) |  |  |  | 0.097 |  | 
O=C(NCCc1ccc(O)cc1)C(=O)Nc1ccc(Cl)cc1 | 37 | 0.39 | 21 | 0.26 | 0.37 | half-life [6]: 1.18 h
O=C(NCCc1cccc(O)c1)C(=O)Nc1ccc(Cl)cc1 |  |  |  | 2.4 |  | 
COc1ccc(CCNC(=O)Nc2ccc(Cl)cc2)cc1 |  |  |  | > 50 |  | 
COc1ccc(CCNC(=O)C(=O)Nc2ccc(Cl)nc2)cc1 |  |  |  | 0.44 |  | 
COc1ccc(CCNC(=O)C(=O)Nc2ccc(C)c(F)c2)cc1 |  |  |  | 0.31 |  | 
COc1ccc(CCNC(=O)NC(=O)c2ccc(Cl)cc2)cc1 |  |  |  | 0.15 |  | 
COc1ccc(CCNC(=O)NC(=O)c2ccc(OC)cc2)cc1 |  |  |  | 1 |  | 
COc1ccc(CCNC(=O)NC(=O)c2ccc(C(=O)N3CCOCC3)cc2)cc1 |  |  |  | > 50 |  | 
COc1ccc(CCNC(=O)C(=O)Nc2ccccc2F)cc1 |  |  |  | > 50 |  | 
COc1ccc(CCNC(=O)C(=O)NC2CCCCC2)cc1 |  |  |  | > 50 |  | 
COc1ccc(CCNC(=O)NC(=O)c2ccc(C(=O)O)cc2)cc1 |  |  |  | > 50 |  | 
COc1ccc(CCNC(=O)NC(=O)c2ccc(-c3ccccc3)cc2)cc1 |  |  |  | 0.17 |  | 
COc1ccc(CCNC(=O)C(=O)Nc2ccc(C)c(Cl)c2)cc1 |  |  |  | 0.6 |  | 
COc1ccc(CC(C)NC(=O)C(=O)Nc2ccc(Cl)cc2)cc1 (configuration not stated) | 12 | 9.5 | 7.6 | 3.53 | 16.4 | 
COc1ccc(CCCNC(=O)c2ccc(Cl)cc2)cc1 |  |  |  | > 50 |  | 
COc1ccc(CCNC(=O)C(=O)Nc2cc(Cl)cc(Cl)c2)cc1 |  |  |  | > 50 |  | 
COc1ccc(CCNC(=O)C(=O)Nc2ccc(C)c(OC)c2)cc1 |  |  |  | > 50 |  | 
COc1ccc(CCNC(=O)C(=O)Nc2cccnc2F)cc1 |  |  |  | > 50 |  | 
